Test results as given in US20240383893A1, “Hydroxamic Acid Compound Having ENPP1 Inhibitory Activity and Use Thereof” (Haihe Biopharma Co., Ltd., priority 2021, published 2024).

Target: ENPP1 (hENPP1-ECD-His) (Homo sapiens (Human), UniProt P22413)
Sequence (P22413 98-925): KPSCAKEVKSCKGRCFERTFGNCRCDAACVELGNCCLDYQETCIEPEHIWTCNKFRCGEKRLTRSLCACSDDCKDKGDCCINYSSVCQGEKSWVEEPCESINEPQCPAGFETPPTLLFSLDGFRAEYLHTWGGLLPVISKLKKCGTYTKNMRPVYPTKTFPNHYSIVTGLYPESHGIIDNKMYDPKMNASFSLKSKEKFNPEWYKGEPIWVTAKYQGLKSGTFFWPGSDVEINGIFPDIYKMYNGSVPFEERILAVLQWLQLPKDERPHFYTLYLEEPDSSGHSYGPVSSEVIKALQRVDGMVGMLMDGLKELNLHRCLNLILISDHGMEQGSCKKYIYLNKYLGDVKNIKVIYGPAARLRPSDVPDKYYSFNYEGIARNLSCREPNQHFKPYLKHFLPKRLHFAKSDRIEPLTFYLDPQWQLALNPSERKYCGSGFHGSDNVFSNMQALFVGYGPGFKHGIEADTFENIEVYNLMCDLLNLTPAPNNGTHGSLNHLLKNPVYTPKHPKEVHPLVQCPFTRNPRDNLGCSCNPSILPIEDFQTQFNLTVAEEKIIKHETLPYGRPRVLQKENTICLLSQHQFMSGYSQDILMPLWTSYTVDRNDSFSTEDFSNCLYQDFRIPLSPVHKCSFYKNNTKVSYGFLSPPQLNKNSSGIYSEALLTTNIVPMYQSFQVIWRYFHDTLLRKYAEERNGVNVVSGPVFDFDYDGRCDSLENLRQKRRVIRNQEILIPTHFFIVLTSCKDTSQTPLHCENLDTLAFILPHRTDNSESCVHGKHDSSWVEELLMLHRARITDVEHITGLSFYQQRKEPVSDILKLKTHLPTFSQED

Structure (SMILES) | IC50
COc1ccc2c(Oc3ccc(CC(=O)NO)cc3)c(C#N)cnc2c1 [Compound 14] | 1.2 nM
COc1ccc2c(Oc3ccc(C(CC(C)C)C(=O)NO)c(F)c3)ccnc2n1 (stereo not shown) [Compound 201] | 11 nM
COc1ccc2c(Nc3ccc(CC(=O)NO)cc3)ccnc2c1 [Compound 4] | 2.62 nM
CCn1ncc2c(Nc3ccc(CC(=O)NO)c(Cl)c3)ccnc21 [Compound 77] | 1.2 nM
COc1cc2nccc(Nc3ccc(CC(=O)NO)c(F)c3)c2cn1 [Compound 189] | 1.8 nM
COc1ccc2c(Nc3cc(F)c(CC(=O)NO)c(F)c3)ccnc2n1 [Compound 70] | 1.7 nM
COc1ccc2c(Oc3cc(F)c(C4(C(=O)NO)CCOCC4)cc3F)ccnc2n1 [Compound 134] | 3.3 nM
COc1cc2nccc(Oc3ccc(CC(=O)NO)cc3)c2cn1 [Compound 19] | 2.9 nM
Cn1ncc2c(Nc3ccc(C(C)(C)C(=O)NO)cc3)ccnc21 [Compound 81] | 1.9 nM
COc1ccc2c(Oc3ccc(C(C)(C(=O)NO)C4CCOCC4)cc3)ccnc2n1 (stereo not shown) [Compound 172] | 3.1 nM
COc1ccc2c(Oc3ccc4c(c3)CCCC4C(=O)NO)ccnc2n1 (stereo not shown) [Compound 145] | 4.2 nM
O=C(Cc1ccc(Nc2ncnc3cnccc23)cc1)NO [Compound 35] | 49 nM
O=C(Cc1ccc(Nc2ncnc3ccccc23)cc1)NO [Compound 16] | 64 nM
CCn1ncc2c(Nc3ccc(CC(=O)NO)c(OC)c3)ccnc21 [Compound 56] | 2.3 nM
COc1cc2nccc(Nc3ccc(C4(C(=O)NO)CCOCC4)c(F)c3)c2cn1 [Compound 181] | 1.9 nM
COc1cc2nccc(Nc3ccc(C(CC(C)C)C(=O)NO)cc3)c2cn1 (stereo not shown) [Compound 179] | 1 nM
COc1ccc2c(Nc3ccc(CC(=O)NO)cc3)ncnc2n1 [Example 1, N-hydroxy-2-(4-((7-methoxypyridino[2,3-d]pyrimidin-4-yl)amino)phenyl)acetamide] | 1.8 nM
Cn1ncc2c(Oc3ccc(C4(C(=O)NO)CCOCC4)c(Cl)c3)ccnc21 [Compound 197] | 111 nM
COc1ccc2c(N(C)c3ccc(C(C)(C)C(=O)NO)cc3)ccnc2n1 [Compound 114] | 162 nM
COc1ccc2c(Nc3cnn(C(C)(C)C(=O)NO)c3)ccnc2n1 [Compound 118] | 1.5 nM
COc1ccc2c(Oc3ccc(C(C)(C)C(=O)NO)cc3)cc(C)nc2n1 [Compound 67] | 1.7 nM
COc1ccc2c(Nc3c(F)cc(CC(=O)NO)cc3F)ccnc2n1 [Compound 71] | 1.8 nM

Structure (SMILES) | IC50
COc1cc2ncnc(Oc3ccc(CC(=O)NO)cc3)c2cc1OC [Compound 11] | 28 nM
O=C(Cc1ccc(Nc2ncnc3c2cnn3CC(F)(F)F)cc1)NO [Compound 57] | 513 nM
COc1ccc2c(Oc3ccc(C(C)C(=O)NO)cc3F)ccnc2n1 (stereo not shown) [Compound 72] | 2.2 nM
COc1ccc2c(Oc3ccc(C(C(=O)NO)C(C)C)c(F)c3)ccnc2n1 (stereo not shown) [Compound 150] | 7.2 nM
CCOc1ccc2c(Oc3ccc(CC(=O)NO)cc3)ccnc2c1 [Compound 98] | 125 nM
COc1ccc2c(Nc3cnn(C4(C(=O)NO)CCOCC4)c3)ccnc2n1 [Compound 174] | 2.1 nM
COc1ccc2c(Nc3ccc(C4(C(=O)NO)CCOCC4)c(F)c3)ccnc2n1 [Compound 162] | 3 nM
COc1ccc2c(NC3CCN(C(C)(C)C(=O)NO)CC3)ccnc2n1 [Compound 117] | 2.1 nM
COc1ccc2c(Oc3cc(F)c(C(C)(C)C(=O)NO)c(F)c3)ccnc2n1 [Compound 46] | 16 nM
COc1cc2ncnc(Nc3ccc(C(C(=O)NO)C(C)C)cc3)c2cn1 (stereo not shown) [Compound 187] | 27 nM
COc1ccc2c(Oc3ccc([C@H](C(=O)NO)C4CCOCC4)c(F)c3)ccnc2n1 [Compound 206] | 12 nM
COc1ccc2c(Oc3c(F)cc(C4(C(=O)NO)CCOCC4)cc3F)ccnc2n1 [Compound 137] | 2.6 nM
COc1ccc2c(Oc3ccc(N4CCC[C@H]4C(=O)NO)cc3)ccnc2n1 [Compound 196, (S)—N-hydroxy-1-(4-((7-methoxy-1,8-naphthylidin-4-yl)oxy)phenyl)pyrrolidin-2-formamide] | 130 nM
O=C(Cc1ccc(Nc2ncnc3nc(O)ccc23)cc1)NO [Compound 31] | 20 nM
COc1ccc2c(Nc3ccc(C(C(=O)NO)C(C)C)cc3)ccnc2n1 (stereo not shown) [Compound 161] | 16 nM
COc1ccc2c(Nc3ccc(CC(=O)NO)c(Cl)c3)ccnc2n1 [Compound 78] | 1.8 nM
COc1cc2nccc(Nc3cc(F)c(C(C(=O)NO)C(C)C)c(F)c3)c2cn1 (stereo not shown) [Compound 191] | 11 nM
COc1ccc2c(Oc3ccc(C(C)(C)C(=O)NO)c(Cl)c3)ccnc2n1 [Compound 103] | 21 nM
COc1ccc2c(Nc3ccc4c(c3)CCC4C(=O)NO)ccnc2n1 (stereo not shown) [Compound 51] | 2.5 nM
COc1cc2ncnc(Nc3ccc(C(CC(C)C)C(=O)NO)cc3)c2cn1 (stereo not shown) [Compound 188] | 4.6 nM
COc1ccc2c(Oc3ccc(C4(C(=O)NO)CC5CCC(C4)O5)cc3)ccnc2n1 (stereo not shown) [Compound 176] | 2.9 nM
Cc1ccc2c(Nc3ccc(CC(=O)NO)cc3)ncnc2n1 [Compound 60] | 673 nM

Structure (SMILES) | IC50
COc1ccc2c(Nc3cnn(CC(=O)NO)c3)ccnc2n1 [Compound 90] | 4.5 nM
CONC(=O)C(C)(C)c1ccc(Oc2ccnc3cc(OC)c(OC)cc23)cc1 [Example A-2, reference compound] | 3280 nM
COc1cc2nccc(Nc3ccc(CC(=O)NO)cc3F)c2cn1 [Compound 190] | 3.9 nM
COc1ccc2c(Oc3ccc(C4(C(=O)NO)CCCOCC4)cc3)ccnc2n1 (stereo not shown) [Compound 175] | 1.9 nM
CC(C)(C(=O)NO)c1ccc(Oc2ccnc3cc(Cl)ccc23)cc1 [Compound 94] | 257 nM
O=C(Cc1ccc(Nc2ncnc3ncccc23)cc1)NO [Compound 39] | 205 nM
CC(C(=O)NO)c1ccc(Oc2ccnc3c2cnn3C)cc1 (stereo not shown) [Compound 36] | 24 nM
COc1ccc2c(Oc3ccc(CC(=O)NO)cc3)ncnc2c1 [Compound 8] | 2.17 nM
CCn1nc(C)c2c(Nc3ccc(CC(=O)NO)cc3)ncnc21 [Compound 74] | 7.8 nM
COc1ccc2c(Oc3ccc(C(CC(C)C)C(=O)NO)cc3)ccnc2n1 (stereo not shown) [Compound 132] | 6.6 nM
COc1cc2nccc(Oc3ccc(CC(=O)NO)cc3)c2cc1F [Compound 13] | 1.37 nM
CCn1ncc2c(Oc3ccc(C4(C(=O)NO)CC4)cc3)ccnc21 [Compound 54] | 1.6 nM
COc1ccc2c(Nc3cnn(C(C(=O)NO)C(C)C)c3)ccnc2n1 (stereo not shown) [Compound 167] | 103 nM
COc1ccc2c(Oc3cccc(CC(=O)NO)c3)ccnc2n1 [Compound 75] | 112 nM
COc1cccc2c(Oc3ccc(CC(=O)NO)cc3)c(C#N)cnc12 [Compound 5] | 150 nM
CCn1ncc2c(Nc3ccc(CC(=O)NO)cc3)ncnc21 [Compound 33] | 2.4 nM
COc1cc2nccc(Oc3ccc(C(C)(C)C(=O)NO)cc3)c2cn1 [Compound 97] | 1.5 nM
COc1ccc2c(OC3CCN(C(C)(C)C(=O)NO)CC3)ccnc2n1 [Compound 116] | 21 nM
COc1ccc2c(Oc3ccc(C4(C(=O)NO)CCOCC4)c(Cl)c3)ccnc2n1 [Compound 135] | 7.1 nM
COc1ccc2c(Nc3ccc(CC(=O)NO)c4ccccc34)ccnc2n1 [Compound 96] | 6.8 nM
